Holding throughout (assay type): cell-based
Test [1] relates to AMPK. The experiment in a line: AMPK activity, western blotting of phosphorylated AMPK in C2C12 myotubes. The following applies: 10 µM, 24 hours, FIG. 2. The source says:
AMP-activated protein kinase (AMPK) is a member of serine/threonine kinases, and is an enzyme known as an energy sensor which senses the intracellular energy state. Moreover, the activation of AMPK is known to show the effect of increasing glucose transport and promoting fatty acid oxidation in skeletal muscle, and to […] the synthesis of cholesterol and triglycerides, decrease lipogenesis, and increase fatty acid oxidation, and ketogenesis, and the like in the liver. Further, the activation of AMPK is known to reduce adipogenesis in adipose tissue and increase insulin secretion in pancreatic beta cells, thereby being able to be applied to the treatment of various metabolic diseases. Therefore, western blotting was performed in order to confirm the effect of the DMC derivatives of Example 1 on AMPK activity. More specifically, the C2C12 myoblasts were primarily cultured in DMEM supplemented with 10% fetal bovine serum, and then cultured in DMEM supplemented with 2% horse serum for 5 days to differentiate into myotubes. Then, the differentiated myotubes were treated with 10 µM DMC derivative and cultured for 24 hours, and then cells were collected, and disrupted using an ultrasonic disperser to obtain proteins. Next, western blotting was performed using a pAMPK antibody (Cell Signaling Technology) and an AMPK antibody (Cell Signaling Technology) to measure the amount of phosphorylated AMPK. 1 mM AICAR was used as a positive control, and 20 µg of protein was used for each sample in western blotting.
(In general: A western blot detects proteins with antibodies after separation by electrophoresis.)

The test system of test [2] is human kidney proximal tubule epithelial cell (HK-2) cell line. The experiment in a line: Antioxidant effect, intracellular reactive oxygen species (DCF-DA) in HK-2 kidney cells after H2O2. As to conditions: 1 µM for 18 hours, then 500 µM H2O2 for 6 hours, FIG. 6. How it is done:
First, the antioxidant effect was checked using kidney cells. More specifically, a human kidney proximal tubule epithelial cell (HK-2) cell line was treated with 1 µM DMC derivative and cultured for 18 hours. Then, 500 µM H2O2 was added to the culture medium and the culture medium was incubated for 6 hours. Thereafter, the amount of intracellular reactive oxygen species (iROS) was measured using dichlorohydro-fluorescein diacetate (DCF-DA).

Test [3] deals with vascular endothelial cells (HUVECs) and THP-1 (human monocyte) immune cells. The experiment in a line: Binding of THP-1 immune cells to TNFα-treated vascular endothelial cells (HUVECs). The following applies: 10 µM with 10 ng/mL TNFα, 24 hours, then THP-1 for 1 hour; FIG. 5. Here is the method: In the early stages of progression of vascular diseases such as arteriosclerosis, adhesion materials are expressed in vascular endothelial cells due to various environmental factors, thereby increasing the binding of immune cells. Therefore, in order to check whether the DMC derivatives of Example 1 affect the binding between vascular endothelial cells and immune cells, vascular endothelial cells (HUVECs) were treated with 10 ng/mL TNFα and 10 µM DMC derivative and cultured for 24 hours. Then, THP-1 (human monocyte) immune cells labeled with a fluorescent protein were added to the culture solution, and the cells were additionally cultured for 1 hour. After the culture was completed, unbound immune cells were removed using a phosphate buffer solution, and then the degree of binding of immune cells to vascular endothelial cells was determined by measuring the intensity of fluorescence.

The test system of test [4] is rat aortic smooth muscle cells. The test can be described thus: PDGF-induced migration of vascular smooth muscle cells. As to conditions: 1 µM with 10 ng/mL PDGF; FIG. 4. Here is the method: Proliferation and migration of vascular smooth muscle cells are known to be essential steps in the progression of vascular diseases such as restenosis and arteriosclerosis. Therefore, in order to confirm the effect of the DMC derivatives of Example 1 on the migration of rat aortic smooth muscle cells, smooth muscle cells were treated with 10 ng/mL platelet-derived growth factor (PDGF) and 1 µM DMC derivative and cultured. Then, the degree of cell migration was measured.

Turning to `COCOc1c(C)c(O)c(C(=O)/C=C/c2ccc(F)cc2)c(OC)c1C` [Chemical Formula 24, 1-(2′-hydroxy-4′-(methoxymethoxy)-6′-methoxy-3′,5′-dimethylphenyl)-3-(4-fluorophenyl)-2-propen-1-one], the “activity of AMPK (phosphorylated AMPK)” value in test [1] is “increased the activity of AMPK similarly to or more effectively than the positive controls”. In addition, the “amount of intracellular reactive oxygen species (ROS)” value (from here on “amount”) in test [2] is recorded as “effectively reduced ROS”. Also, the “binding of immune cells to vascular endothelial cells (fluorescence)” value (“binding of immune cells” for short) in test [3] is reported as “similarly or more effectively suppressed the binding of immune cells than Rosi”. Also, the “migration of vascular smooth muscle cells” value (“migration” below) in test [4] is “similarly or more effectively suppressed cell migration by PDGF than AICAR and Rosi, which were used as positive controls, and DMC”.
Consider `COCOc1c(C)c(O)c(C(=O)/C=C/c2ccccc2)c(OC)c1C` [Chemical Formula 25, 1-(2′-hydroxy-4′-(methoxymethoxy)-6′-methoxy-3′,5′-dimethylphenyl)-3-phenyl-2-propen-1-one], for which the “activity of AMPK (phosphorylated AMPK)” value in test [1] is on record as “increased the activity of AMPK similarly to or more effectively than the positive controls”. Also, in test [2], the “amount” value is on record as “effectively reduced ROS”. Further, the “binding of immune cells” value in test [3] is “similarly or more effectively suppressed the binding of immune cells than Rosi”. The “migration” value in test [4] was “similarly or more effectively suppressed cell migration by PDGF than AICAR and Rosi, which were used as positive controls, and DMC”.
`COc1c(C)c(O)c(C)c(O)c1C(=O)/C=C/c1ccc(C)cc1` [Chemical Formula 3, 1-(2′,4′-dihydroxy-6′-methoxy-3′,5′-dimethylphenyl)-3-(4-tolyl)-2-propen-1-one]: the “activity of AMPK (phosphorylated AMPK)” value in test [1] is “increased the activity of AMPK similarly to or more effectively than the positive controls”. In test [2], the “amount” value is reported as “effectively reduced ROS”. The “binding of immune cells” value in test [3] is “similarly or more effectively suppressed the binding of immune cells than Rosi”. The “migration” value in test [4] is “similarly or more effectively suppressed cell migration by PDGF than AICAR and Rosi, which were used as positive controls, and DMC”.
In the case of `COCOc1c(C)c(O)c(C(=O)/C=C/c2cc(OC)ccc2OC)c(OC)c1C` [Chemical Formula 15, 1-(2′-hydroxy-4′-(methoxymethoxy)-6′-methoxy-3′,5′-dimethylphenyl)-3-(2,5-dimethoxyphenyl)-2-propen-1-one], the “activity of AMPK (phosphorylated AMPK)” value in test [1] is “increased the activity of AMPK similarly to or more effectively than the positive controls”. Moreover, the “amount” value in test [2] is given as “effectively reduced ROS”. In addition, in test [3], the “binding of immune cells” value is “similarly or more effectively suppressed the binding of immune cells than Rosi”. For the same compound, the “migration” value in test [4] is “similarly or more effectively suppressed cell migration by PDGF than AICAR and Rosi, which were used as positive controls, and DMC”.
With `COCOc1c(C)c(O)c(C(=O)/C=C/c2ccc(SC)cc2)c(OC)c1C` [Chemical Formula 13, 1-(2′-hydroxy-4′-(methoxymethoxy)-6′-methoxy-3′,5′-dimethyphenyl)-3-(4-methylthiophenyl)-2-propen-1-one], in test [2], the “amount” value is “effectively reduced ROS”. For the same compound, the “binding of immune cells” value in test [3] is given as “similarly or more effectively suppressed the binding of immune cells than Rosi”. Also, the “migration” value in test [4] was “similarly or more effectively suppressed cell migration by PDGF than AICAR and Rosi, which were used as positive controls, and DMC”.
For the compound `COc1c(C)c(OC)c(C(=O)/C=C/c2ccc(N(C)C)cc2)c(OC)c1C` [Chemical Formula 23, 1-(3′,5′-dimethyl-2′,4′,6′-trimethoxyphenyl)-3-(4-(N,N-dimethylamino)phenyl)-2-propen-1-one], the “activity of AMPK (phosphorylated AMPK)” value in test [1] is on record as “increased the activity of AMPK similarly to or more effectively than the positive controls”. Further, the “amount” value in test [2] is on record as “effectively reduced ROS”. Besides, the “binding of immune cells” value in test [3] is recorded as “similarly or more effectively suppressed the binding of immune cells than Rosi”. In addition, in test [4], the “migration” value is “similarly or more effectively suppressed cell migration by PDGF than AICAR and Rosi, which were used as positive controls, and DMC”.

The values are drawn from patent US20230248665A1, “COMPOSITION COMPRISING DIMETHYLCHALCONE DERIVATIVE FOR PREVENTION OR TREATMENT OF METABOLIC DISEASE” (SEOUL NATIONAL UNIVERSITY R & DB FOUNDATION, priority 2020, published 2023).
